Assay results: ChEMBL document CHEMBL1146680, “A highly toxic morphine-3-glucuronide derivative” (Bioorg Med Chem Lett, 2004)
The source made the active and inactive calls. No cut-off for these calls is given here.

Tests used:
Rattus norvegicus [1] = assay: Opioid antagonist activity (1 mg/kg, peripherally) was determined by measuring the analgesia produced by morphine given 10 mins (after the compound) at a dose of 5 mg/kg; no effect; assay type: functional, organism-based; design: dose 5 mg/kg
Rattus norvegicus [2] = assay: Opioid antagonist activity (5 mg/kg, peripherally) was determined by measuring the analgesia produced by morphine given 10 mins (after the compound) at a dose of 5 mg/kg; no effect; assay type: functional, organism-based; design: dose 5 mg/kg
Rattus norvegicus [3] = assay: Opioid antagonist activity (30 mg/kg, peripherally) was determined by measuring the analgesia produced by morphine given 10 mins (after the compound) at a dose of 5 mg/kg; no effect; assay type: functional, organism-based; design: dose 5 mg/kg
Rattus norvegicus [4] = assay: Effect after 10 mg/kg i.p. administration was measured by rat paw pressure test; no analgesia observed; assay type: functional, organism-based; design: dose 10 mg/kg
Rattus norvegicus [5] = assay: Effect after 1 mg/kg i.p. administration was measured by rat tail flick test; no analgesia observed; assay type: functional, organism-based; design: dose 1 mg/kg
Rattus norvegicus [6] = assay: Effect after 1 mg/kg i.p. administration was measured by rat paw pressure test; no analgesia observed; assay type: functional, organism-based; design: dose 1 mg/kg
Rattus norvegicus [7] = assay: Inhibition of analgesia by (5 mg/kg) administered 10 min after morphine (5 mg/kg); inhibited; assay type: functional, organism-based
Rattus norvegicus [8] = assay: Effect after 5 mg/kg i.p. administration was measured by rat paw pressure test; no analgesia observed; assay type: functional, organism-based; design: dose 5 mg/kg
Rattus norvegicus [9] = assay: Effect after 10 mg/kg i.p. administration was measured by rat tail flick test; no analgesia observed; assay type: functional, organism-based; design: dose 10 mg/kg
Rattus norvegicus [10] = assay: Effect after 5 mg/kg i.p. administration was measured by rat tail flick test; no analgesia observed; assay type: functional, organism-based; design: dose 5 mg/kg
Rattus norvegicus [11] = assay: Analgesic effect on rats after 30 mins of 5 mg/kg administration; value ranges from 60-70%; assay type: functional
Rattus norvegicus [12] = assay: Opioid agonist activity by measuring the analgesia produced after 5 mg/kg administration in rats; none; assay type: functional, organism-based; design: dose 5 mg/kg
Rattus norvegicus [13] = assay: Opioid agonist activity by measuring the analgesia produced after 10 mg/kg administration in rats; none; assay type: functional, organism-based; design: dose 10 mg/kg
Rattus norvegicus [14] = assay: Opioid agonist activity by measuring the analgesia produced after 1 mg/kg administration in rats; none; assay type: functional, organism-based; design: dose 1 mg/kg
Rattus norvegicus [15] = assay: Reversion of toxic effect (1 ng/kg) by naloxone given 30 mins (after the compound) at a dose of 10 mg/kg; no improvement in survival observed; assay type: organism-based; design: dose 10 mg/kg; settings: in vivo, 0.5 h
Rattus norvegicus [16] = assay: Reversion of toxic effect (1 ng/kg) by naloxone given 15 mins (before the compound) at a dose of 1 mg/kg; no improvement in survival observed; assay type: organism-based; design: dose 1 mg/kg; settings: in vivo, 0.25 h
Rattus norvegicus [17] = assay: Reversion of toxic effect (1 ng/kg) by naloxone given 15 mins (before the compound) at a dose of 5 mg/kg; no improvement in survival observed; assay type: ADME, organism-based; design: dose 5 mg/kg; settings: in vivo, 0.25 h
Rattus norvegicus [18] = assay: Reversion of toxic effect (1 ng/kg) by naloxone given 10 mins (before the compound) at a dose of 5 mg/kg; no improvement in survival observed; assay type: ADME, organism-based; design: dose 5 mg/kg; settings: in vivo
Rattus norvegicus [19] = assay: Reversion of toxic effect (1 ng/kg) by naloxone given 10 mins (before the compound) at a dose of 10 mg/kg; no improvement in survival observed; assay type: ADME, organism-based; design: dose 10 mg/kg; settings: in vivo
Rattus norvegicus [20] = assay: Reversion of toxic effect (1 ng/kg) by naloxone given 15 mins (after the compound) at a dose of 5 mg/kg; no improvement in survival observed; assay type: ADME, organism-based; design: dose 5 mg/kg; settings: in vivo, 0.25 h
Mus musculus [21] = assay: Effect after 1 ng/kg i.p. administration was measured by mice tail flick test; no analgesia observed; assay type: functional, organism-based
Rattus norvegicus [22] = assay: Reversion of toxic effect (1 ng/kg) by naloxone given 30 mins (after the compound) at a dose of 5 mg/kg; no improvement in survival observed; assay type: ADME, organism-based; design: dose 5 mg/kg; settings: in vivo, 0.5 h
Rattus norvegicus [23] = assay: Effect on rats after 30 mins of 5 mg/kg administration; death observed; assay type: ADME, organism-based; design: dose 5 mg/kg; settings: in vivo, 0.5 h
Rattus norvegicus [24] = assay: Reversion of toxic effect (1 ng/kg) by naloxone given 10 mins (after the compound) at a dose of 10 mg/kg; no improvement in survival observed; assay type: ADME, organism-based; design: dose 10 mg/kg; settings: in vivo
Rattus norvegicus [25] = assay: Reversion of toxic effect (1 ng/kg) by naloxone given 15 mins (after the compound) at a dose of 10 mg/kg; no improvement in survival observed; assay type: ADME, organism-based; design: dose 10 mg/kg; settings: in vivo, 0.25 h
Rattus norvegicus [26] = assay: Effect on rats after 30 mins of 0.05 mg/kg administration; death observed; assay type: ADME, organism-based; design: dose 0.05 mg/kg; settings: in vivo, 0.5 h
Mus musculus [27] = assay: Effect after 1 ng/kg i.p. administration was measured by mice paw pressure test; no analgesia observed; assay type: functional, organism-based
Rattus norvegicus [28] = assay: Reversion of toxic effect (1 ng/kg) by naloxone given 10 mins (after the compound) at a dose of 1 mg/kg; no improvement in survival observed; assay type: organism-based; design: dose 1 mg/kg; settings: in vivo
Rattus norvegicus [29] = assay: Reversion of toxic effect (1 ng/kg) by naloxone given 15 mins (before the compound) at a dose of 10 mg/kg; no improvement in survival observed; assay type: organism-based; design: dose 10 mg/kg; settings: in vivo, 0.25 h
Rattus norvegicus [30] = assay: Effect on rats after 30 mins of 0.5 mg/kg administration; death observed; assay type: ADME, organism-based; design: dose 0.5 mg/kg; settings: in vivo, 0.5 h
Rattus norvegicus [31] = assay: Reversion of toxic effect (1 ng/kg) by naloxone given 20 mins (after the compound) at a dose of 10 mg/kg; no improvement in survival observed; assay type: ADME, organism-based; design: dose 10 mg/kg; settings: in vivo
Rattus norvegicus [32] = assay: Effect on rats after 30 mins of 1 ng/kg administration; death observed; assay type: ADME, organism-based; settings: in vivo, 1e-06 mg/kg, 0.5 h
Rattus norvegicus [33] = assay: Reversion of toxic effect (1 ng/kg) by naloxone given 20 mins (before the compound) at a dose of 5 mg/kg; no improvement in survival observed; assay type: ADME, organism-based; design: dose 5 mg/kg; settings: in vivo
Rattus norvegicus [34] = assay: Reversion of toxic effect (1 ng/kg) by naloxone given 10 mins (before the compound) at a dose of 1 mg/kg; no improvement in survival observed; assay type: organism-based; design: dose 1 mg/kg; settings: in vivo
Rattus norvegicus [35] = assay: Reversion of toxic effect (1 ng/kg) by naloxone given 20 mins (before the compound) at a dose of 1 mg/kg; no improvement in survival observed; assay type: organism-based; design: dose 1 mg/kg; settings: in vivo
Rattus norvegicus [36] = assay: Reversion of toxic effect (1 ng/kg) by naloxone given 15 mins (after the compound) at a dose of 1 mg/kg; no improvement in survival observed; assay type: organism-based; design: dose 1 mg/kg; settings: in vivo, 0.25 h
Rattus norvegicus [37] = assay: Reversion of toxic effect (1 ng/kg) by naloxone given 20 mins (after the compound) at a dose of 5 mg/kg; no improvement in survival observed; assay type: organism-based; design: dose 5 mg/kg; settings: in vivo
Rattus norvegicus [38] = assay: Effect on rats after 30 mins of 2.5 mg/kg administration; death observed; assay type: ADME, organism-based; design: dose 2.5 mg/kg; settings: in vivo, 0.5 h
Rattus norvegicus [39] = assay: Reversion of toxic effect (1 ng/kg) by naloxone given 20 mins (before the compound) at a dose of 10 mg/kg; no improvement in survival observed; assay type: ADME, organism-based; design: dose 10 mg/kg; settings: in vivo
Rattus norvegicus [40] = assay: Reversion of toxic effect (1 ng/kg) by naloxone given 20 mins (after the compound) at a dose of 1 mg/kg; no improvement in survival observed; assay type: ADME, organism-based; design: dose 1 mg/kg; settings: in vivo
Rattus norvegicus [41] = assay: Reversion of toxic effect (1 ng/kg) by naloxone given 10 mins (after the compound) at a dose of 5 mg/kg; no improvement in survival observed; assay type: ADME, organism-based; design: dose 5 mg/kg; settings: in vivo
Rattus norvegicus [42] = assay: Effect on rats after 30 mins of 0.005 mg/kg administration; death observed; assay type: ADME, organism-based; design: dose 0.005 mg/kg; settings: in vivo, 0.5 h
Rattus norvegicus [43] = assay: Effect on rats after 30 mins of 1 mg/kg administration; death observed; assay type: ADME, organism-based; design: dose 1 mg/kg; settings: in vivo, 0.5 h
Rattus norvegicus [44] = assay: Reversion of toxic effect (1 ng/kg) by naloxone given 30 mins (after the compound) at a dose of 1 mg/kg; no improvement in survival observed; assay type: ADME, organism-based; design: dose 1 mg/kg; settings: in vivo, 0.5 h
Rattus norvegicus [45] = assay: Opioid antagonist activity (1 mg/kg, peripherally) was determined by measuring the analgesia produced by morphine given 20 mins (after the compound) at a dose of 5 mg/kg; no effect; assay type: functional, organism-based; design: dose 5 mg/kg

SMILES: C=CCN1CC[C@]23c4c5ccc(O)c4O[C@H]2C(=O)CC[C@@]3(O)[C@H]1C5
- Activity (Rattus norvegicus [1]): inactive
- Activity (Rattus norvegicus [2]): inactive
- Activity (Rattus norvegicus [3]): inactive

SMILES: CN1CC[C@]23c4c5ccc(OC6OC(C(N)=O)C(O)C(O)C6O)c4O[C@H]2[C@@H](O)C=C[C@H]3[C@H]1C5 (stereo not given in full)
- Effect (Rattus norvegicus [4]): no analgesia observed
- Effect (Rattus norvegicus [5]): no analgesia observed
- Effect (Rattus norvegicus [6]): no analgesia observed
- Activity (Rattus norvegicus [7]): inhibited
- Effect (Rattus norvegicus [8]): no analgesia observed
- Effect (Rattus norvegicus [9]): no analgesia observed
- Effect (Rattus norvegicus [10]): no analgesia observed

SMILES: CN1CC[C@]23c4c5ccc(O)c4O[C@H]2[C@@H](O)C=C[C@H]3[C@H]1C5 [MORPHINE]
- Effect (Rattus norvegicus [11]): 70%

SMILES: CN1CC[C@]23c4c5ccc(O[C@@H]6O[C@H](C(=O)O)[C@@H](O)[C@H](O)[C@H]6O)c4O[C@H]2[C@@H](O)C=C[C@H]3[C@H]1C5 (stereo in doubt; form 2)
- Activity (Rattus norvegicus [12]): inactive
- Activity (Rattus norvegicus [13]): inactive
- Activity (Rattus norvegicus [14]): inactive

SMILES: CCCCCCCCNC(=O)C1OC(Oc2ccc3c4c2O[C@H]2[C@@H](O)C=C[C@H]5[C@@H](C3)N(C)CC[C@@]452)C(O)C(O)C1O (stereo not given in full)
- Activity (Rattus norvegicus [15]): no improvement in survival
- Activity (Rattus norvegicus [16]): no improvement in survival
- Activity (Rattus norvegicus [17]): no improvement in survival
- Activity (Rattus norvegicus [18]): no improvement in survival
- Activity (Rattus norvegicus [19]): no improvement in survival
- Activity (Rattus norvegicus [20]): no improvement in survival
- Effect (Mus musculus [21]): Death
- Activity (Rattus norvegicus [22]): no improvement in survival
- Effect (Rattus norvegicus [23]): Death
- Activity (Rattus norvegicus [24]): no improvement in survival
- Activity (Rattus norvegicus [25]): no improvement in survival
- Effect (Rattus norvegicus [26]): Death
- Effect (Mus musculus [27]): Death
- Activity (Rattus norvegicus [28]): no improvement in survival
- Activity (Rattus norvegicus [29]): no improvement in survival
- Effect (Rattus norvegicus [30]): Death
- Activity (Rattus norvegicus [31]): no improvement in survival
- Effect (Rattus norvegicus [32]): Death
- Activity (Rattus norvegicus [33]): no improvement in survival
- Activity (Rattus norvegicus [34]): no improvement in survival
- Activity (Rattus norvegicus [35]): no improvement in survival
- Activity (Rattus norvegicus [36]): no improvement in survival
- Activity (Rattus norvegicus [37]): no improvement in survival
- Effect (Rattus norvegicus [38]): Death
- Activity (Rattus norvegicus [39]): no improvement in survival
- Activity (Rattus norvegicus [40]): no improvement in survival
- Activity (Rattus norvegicus [41]): no improvement in survival
- Effect (Rattus norvegicus [42]): Death
- Effect (Rattus norvegicus [43]): Death
- Activity (Rattus norvegicus [44]): no improvement in survival

SMILES: CN1CC[C@]23c4c5ccc(O[C@@H]6O[C@H](C(=O)O)[C@@H](O)[C@H](O)[C@H]6O)c4O[C@H]2[C@@H](O)C=C[C@H]3[C@H]1C5 (stereo in doubt; form 1)
- Activity (Rattus norvegicus [45]): inactive
- Activity (Rattus norvegicus [12]): inactive
- Activity (Rattus norvegicus [13]): inactive
- Activity (Rattus norvegicus [14]): inactive
- Activity (Rattus norvegicus [2]): inactive
- Activity (Rattus norvegicus [3]): inactive
